According to the SangsterLogP compilation:

test: not given

logP	Structure (SMILES)
1	C#CCn1nnnc1Oc1ccc(NC(=O)N(C)C)cc1
1.65	CN(C)C(=O)Nc1ccc(Oc2nnnn2C(C)(C)C)cc1
1.7	CN(C)C(=O)Nc1ccc(Oc2nnnn2Cc2ccccc2)cc1
1	C=CCn1nnnc1Oc1ccc(NC(=O)N(C)C)cc1
1.65	C#CCn1nnc(Oc2ccc(NC(=O)N(C)C)cc2)n1

The remaining lines, values behind:

Structure (SMILES)	logP
CCn1nnc(Oc2ccc(NC(=O)N(C)C)cc2Cl)n1	1.7
CN(C)C(=O)Nc1ccc(Oc2nnn(Cc3ccccc3)n2)cc1	2.25
CC(C)n1nnc(Oc2ccc(NC(=O)N(C)C)cc2)n1	1.45
CCCCCCCCn1nnc(Oc2ccc(NC(=O)N(C)C)cc2)n1	4.4
C=CCn1nnc(Oc2ccc(NC(=O)N(C)C)cc2)n1	1.65
CN(C)C(=O)Nc1ccc(Oc2nnnn2C(C)(C)C)c(Cl)c1	2.25

test: method code SF-AS, from DOI: 10.1021/jf00085a044

logP	Structure (SMILES)
0.7	CCOC(=O)Cn1nnnc1Oc1ccc(NC(=O)N(C)C)cc1
3.96	CCCCCCCCn1nnnc1Oc1ccc(NC(=O)N(C)C)cc1

Second part, the molecule before the results:

Structure (SMILES)	logP
CN(C)C(=O)Nc1ccc(Oc2nnn(C(C)(C)C)n2)cc1	2.08
CN(C)C(=O)Nc1ccc(Oc2nnn(CCC#N)n2)cc1	0.28
CN(C)C(=O)Nc1ccc(Oc2nnnn2C2CCCCC2)cc1	2.18
CN(C)C(=O)Nc1ccc(Oc2nnn(C3CCCCC3)n2)cc1	2.67
CCn1nnnc1Oc1ccc(NC(=O)N(C)C)cc1Cl	1.5
CN(C)C(=O)Nc1ccc(Oc2nnn(C)n2)cc1	0.63
CCn1nnc(Oc2ccc(NC(=O)N(C)C)cc2)n1	1.1
